How the values were obtained:
Assay in all cases: combination Emax (second highest fraction inhibited in the dose matrix, 72 h); higher = more inhibition; extreme values may be limits of the assay
[1] = system: NCI-H2085 (Non-Small Cell Lung Carcinoma)
In short: (§1)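 After 24 hours at 37°C and 5% CO2 in 1536-well plates, cells in DMEM/F12 or RPMI plus 10% FBS received two-drug dose matrices for 72 hours. Viability came from CellTiter-Glo 2.0 luminescence and was scaled as inhibition, anchored at 0 by vehicle wells and at 1 by blank wells. Combination Emax is taken as the second-highest inhibition in the matrix, and Bliss excess as the observed combination effect less EA + EB − EA·EB, with EA and EB the single-agent effects.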

[2] = system: HCC-78 (Lung Adenocarcinoma)
In short: as §1

[3] = system: HCC1806 (Breast Carcinoma)
In short: as §1

[4] = system: Calu-3 (Lung Adenocarcinoma)
In short: as §1

[5] = system: TE-9 (Esophageal Squamous Cell Carcinoma)
In short: as §1

[6] = system: Ramos-2G6-4C10 (Burkitt's Lymphoma)
In short: as §1

NB10 (Neuroblastoma) = system: NB10 (Neuroblastoma)
In short: as §1

[7] = system: Daoy (Other Solid Carcinomas)
In short: as §1

[8] = system: LU-135 (Small Cell Lung Carcinoma)
In short: as §1

[9] = system: CCRF-CEM (T-Lymphoblastic Leukemia)
In short: as §1

ES4 (Ewing's Sarcoma) = system: ES4 (Ewing's Sarcoma)
In short: as §1

[10] = system: COLO-205 (Colorectal Carcinoma)
In short: as §1

T98G (Glioblastoma) = system: T98G (Glioblastoma)
In short: as §1

[11] = system: TCCSUP (Bladder Carcinoma)
In short: as §1

[12] = system: KP-1N (Pancreatic Carcinoma)
In short: as §1

[13] = system: ME-1 (Acute Myeloid Leukemia)
In short: as §1

[14] = system: TE-15 (Esophageal Squamous Cell Carcinoma)
In short: as §1

[15] = system: RC-K8 (B-Cell Non-Hodgkin's Lymphoma)
In short: as §1

[16] = system: DoTc2-4510 (Cervical Carcinoma)
In short: as §1

42-MG-BA (Glioblastoma) = system: 42-MG-BA (Glioblastoma)
In short: as §1

Row | SMILES | combination Emax [1] | combination Emax [2] | combination Emax [3] | combination Emax [4] | combination Emax [5] | combination Emax [6] | combination Emax (NB10 (Neuroblastoma)) | combination Emax [7] | combination Emax [8] | combination Emax [9] | combination Emax (ES4 (Ewing's Sarcoma)) | combination Emax [10] | combination Emax (T98G (Glioblastoma)) | combination Emax [11] | combination Emax [12] | combination Emax [13] | combination Emax [14] | combination Emax [15] | combination Emax [16] | combination Emax (42-MG-BA (Glioblastoma))
1 | CC1(C)CCC(CN2CCN(c3ccc(C(=O)NS(=O)(=O)c4ccc(NCC5CCOCC5)c([N+](=O)[O-])c4)c(Oc4cnc5[nH]ccc5c4)c3)CC2)=C(c2ccc(Cl)cc2)C1 [Venetoclax] + C[C@@H]1COCCN1C2=NC(=NC(=C2)C3(CC3)[S@](=N)(=O)C)C4=C5C=CNC5=NC=C4 [AZD6738] (first compound max 1 µM, 7x7, partner max 10 µM) | 0.534 | 0.661 | 0.938 | 0.265 | 0.274 | 0.789 | 0.849 | 0.9 | 0.761 | 1 | 0.793 | 0.344 | 0.889 | 0.638 | 0.235 | 1 | 0.796 | 0.837 | 0.603 | 0.678
2 | CC1(C)CCC(CN2CCN(c3ccc(C(=O)NS(=O)(=O)c4ccc(NCC5CCOCC5)c([N+](=O)[O-])c4)c(Oc4cnc5[nH]ccc5c4)c3)CC2)=C(c2ccc(Cl)cc2)C1 [Venetoclax] + C[C@@H](Nc1cc(F)cc(F)c1)c1cc(C(=O)N(C)C)cc2c(=O)cc(N3CCOCC3)oc12 [AZD8186] (first compound max 1 µM, 7x7, partner max 3 µM) | 0.354 | 0.261 | 0.0952 | 0.0911 | 0.129 | 0.221 | 0.24 | 0.176 | 0.484 | 0.95 | 0.211 | 0.285 | 0.411 | 0.131 | 0.235 | 1 | 0.369 | 0.281 | 0.197 | 0.391
3 | CC1(C)CCC(CN2CCN(c3ccc(C(=O)NS(=O)(=O)c4ccc(NCC5CCOCC5)c([N+](=O)[O-])c4)c(Oc4cnc5[nH]ccc5c4)c3)CC2)=C(c2ccc(Cl)cc2)C1 [Venetoclax] + Cc1cc2ncnn2cc1Nc1ncc2c(n1)n(C1CCOCC1)c(=O)n2C [AZD7648] (first compound max 1 µM, 7x7, partner max 10 µM) | 0.143 | 0.243 | 0.172 | 0.155 | 0.154 | 0.289 | 0.246 | 0.172 | 0.386 | 0.931 | 0.104 | 0.213 | 0.352 | 0.271 | 0.108 | 1 | 0.295 | 0.496 | 0.23 | 0.43
4 | CC1(C)CCC(CN2CCN(c3ccc(C(=O)NS(=O)(=O)c4ccc(NCC5CCOCC5)c([N+](=O)[O-])c4)c(Oc4cnc5[nH]ccc5c4)c3)CC2)=C(c2ccc(Cl)cc2)C1 [Venetoclax] + Cn1cnc2c(F)c(Nc3ccc(Br)cc3Cl)c(C(=O)NOCCO)cc21 [Selumetinib] (first compound max 1 µM, 7x7, partner max 3 µM) | 0.23 | 0.167 | 0.359 | 0.071 | 0.0846 | 0.035 | 0.381 | 0.0883 | 0.332 | 0.926 | 0.0348 | 0.718 | 0.163 | 0.136 | 0.191 | 1 | 0.263 | 0.227 | 0.268 | 0.215
